Experimental findings from ChEMBL document CHEMBL1124130 (J Med Chem, 1988) are described below.

The target in one data set is T1, Muscarinic acetylcholine receptor M1 (Rattus norvegicus, UniProt P08482).
T1 sequence (P08482 whole entry): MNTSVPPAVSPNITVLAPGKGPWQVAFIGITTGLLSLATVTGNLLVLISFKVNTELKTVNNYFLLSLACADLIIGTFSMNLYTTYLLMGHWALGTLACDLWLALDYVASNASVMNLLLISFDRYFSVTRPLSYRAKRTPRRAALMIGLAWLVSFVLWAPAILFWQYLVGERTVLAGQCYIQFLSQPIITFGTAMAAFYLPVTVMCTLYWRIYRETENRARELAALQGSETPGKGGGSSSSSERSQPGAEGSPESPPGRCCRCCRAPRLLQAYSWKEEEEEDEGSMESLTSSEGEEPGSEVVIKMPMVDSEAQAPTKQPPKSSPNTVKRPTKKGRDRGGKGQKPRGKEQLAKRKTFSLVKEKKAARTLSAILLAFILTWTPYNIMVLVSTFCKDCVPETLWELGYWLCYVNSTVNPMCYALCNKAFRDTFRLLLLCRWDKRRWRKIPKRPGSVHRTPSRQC
Description: biochemical.
Conditions: not given
In general, IC50 refers to the concentration that inhibits the measured activity by half. The molecule `CN1CCC(CC(=O)N2c3ccccc3C(=O)Nc3cccnc32)CC1` had an IC50 of 0.07 µM.

In the case of `CN1CCN(NC(=O)N2c3ccccc3C(=O)Nc3cccnc32)CC1`, half-maximal inhibition (IC50) required 0.06 µM. The IC50 values of the last two molecules are within 1.5-fold of each other.

The molecule `CN1CCC(OC(=O)N2c3ccccc3C(=O)Nc3cccnc32)CC1` yielded an IC50 of 0.1 µM.

The molecule `CN1CCN(C(=O)N2c3ccccc3C(=O)Nc3cccnc32)CC1` showed an IC50 of 0.15 µM.

`CN1CCN(CC(=O)N2c3ccccc3NC(=O)c3cscc32)CC1` had an IC50 of 0.05 µM.

In turn, `CN(C)CC(=O)N1c2ccccc2C(=O)Nc2cccnc21` displayed an IC50 of 1.5 µM.

`CN1CCC(NC(=O)N2c3ccccc3C(=O)Nc3cccnc32)CC1` showed a concentration for half-maximal inhibition (IC50) of 0.2 µM.

For the molecule `CN1CCN(CC(=O)N2c3ccccc3NC(=O)c3ccccc32)CC1`, the IC50 was found to be 0.023 µM. Against the preceding molecule, the IC50 is about 8.7-fold lower.

`CN1CCN(CC(=O)N2c3ccccc3NC(=O)c3cccnc32)CC1`: half-maximal inhibition (IC50) required 0.3 µM.

The molecule `CN(C)CCCCC(=O)N1c2ccccc2C(=O)Nc2cccnc21` yielded an IC50 of 0.6 µM.

The target of the next data set is T1, Muscarinic acetylcholine receptor M1. Description: Binding affinity towards muscarinic receptor of cerebral cortex containing Muscarinic acetylcholine receptor M1. Format: tissue-based.
Conditions: not given
Regarding `CN1CCCCC1CC(=O)N1c2ccccc2C(=O)Nc2cccnc21` (stereo not drawn), the 50% inhibitory concentration (IC50) stood at 0.01 µM. This lies in the double-digit nanomolar range.

Molecule `CN(C)CCC(=O)N1c2ccccc2C(=O)Nc2cccnc21` gave a 50% inhibitory concentration (IC50) of 0.2 µM.

Consider `CN(C)CCCC(=O)N1c2ccccc2C(=O)Nc2cccnc21`, for which the IC50 worked out at 0.05 µM. Compared with the last molecule, the IC50 is about 4-fold lower.

As for `CN1CCN(CCC(=O)N2c3ccccc3C(=O)Nc3cccnc32)CC1`, the IC50 was 10 µM.

`CN1CCCC(CC(=O)N2c3ccccc3C(=O)Nc3cccnc32)CC1` (stereo not drawn) returned an IC50 of 0.1 µM.

Consider `CN1CCC(CC(=O)N2c3ccccc3C(=O)Nc3cccnc32)C1` (stereo not drawn), for which the half-inhibitory concentration (IC50) was 0.02 µM.

Consider `CN1CCCC(CC(=O)N2c3ccccc3C(=O)Nc3cccnc32)C1` (stereo not drawn), for which the half-inhibitory concentration (IC50) stood at 0.1 µM.

Another data set deals with T2, Muscarinic acetylcholine receptor M2 (Rattus norvegicus, UniProt P10980).
T2 sequence (P10980 whole entry): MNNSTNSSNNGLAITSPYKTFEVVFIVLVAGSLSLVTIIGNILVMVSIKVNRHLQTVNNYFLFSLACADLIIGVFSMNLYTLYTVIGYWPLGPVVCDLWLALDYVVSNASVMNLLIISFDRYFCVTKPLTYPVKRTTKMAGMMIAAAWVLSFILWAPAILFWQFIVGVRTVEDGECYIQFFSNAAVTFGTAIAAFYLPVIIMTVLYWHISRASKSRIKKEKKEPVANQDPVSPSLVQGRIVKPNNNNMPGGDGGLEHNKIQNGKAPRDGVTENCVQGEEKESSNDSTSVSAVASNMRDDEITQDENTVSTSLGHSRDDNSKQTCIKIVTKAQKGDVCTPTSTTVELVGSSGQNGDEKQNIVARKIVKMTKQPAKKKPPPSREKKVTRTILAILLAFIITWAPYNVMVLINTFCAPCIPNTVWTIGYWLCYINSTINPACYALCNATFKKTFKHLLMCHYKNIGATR
In words: Binding affinity towards muscarinic receptor of gastric fundus containing Muscarinic acetylcholine receptor M2. Format: tissue-based, Stomach.
Conditions: not given
As to `CN1CCC(CC(=O)N2c3ccccc3C(=O)Nc3cccnc32)CC1`, the half-maximal inhibitory concentration (IC50) is 0.7 µM.

Molecule `CN1CCCCC1CC(=O)N1c2ccccc2C(=O)Nc2cccnc21` (stereo not drawn) had an IC50 of 0.008 µM. This IC50 is about 87-fold lower than that of the molecule before.

As to `CN1CCN(NC(=O)N2c3ccccc3C(=O)Nc3cccnc32)CC1`, the half-maximal inhibitory concentration (IC50) was determined as 0.9 µM.

For the molecule `CN1CCC(OC(=O)N2c3ccccc3C(=O)Nc3cccnc32)CC1`, the IC50 worked out at 0.9 µM.

Molecule `CN(C)CCC(=O)N1c2ccccc2C(=O)Nc2cccnc21` yielded an IC50 of 0.2 µM.

For `CN(C)CCCC(=O)N1c2ccccc2C(=O)Nc2cccnc21`, the IC50 came to 0.1 µM. This IC50 is about 2-fold lower than that of the molecule before.

For the molecule `CN1CCN(C(=O)N2c3ccccc3C(=O)Nc3cccnc32)CC1`, the IC50 amounted to 0.6 µM.

Turning to `CN1CCN(CC(=O)N2c3ccccc3NC(=O)c3cscc32)CC1`, the IC50 was 0.35 µM.

The molecule `CN(C)CC(=O)N1c2ccccc2C(=O)Nc2cccnc21` showed an IC50 of 0.7 µM. This IC50 is about 2-fold higher than that of the molecule before.

`CN1CCC(NC(=O)N2c3ccccc3C(=O)Nc3cccnc32)CC1` showed an IC50 of 1.2 µM.

`CN1CCN(CC(=O)N2c3ccccc3NC(=O)c3ccccc32)CC1` had a 50% inhibitory concentration (IC50) of 0.1 µM.

In turn, `CN1CCN(CC(=O)N2c3ccccc3NC(=O)c3cccnc32)CC1` displayed an IC50 of 3 µM.

Molecule `CN1CCN(CCC(=O)N2c3ccccc3C(=O)Nc3cccnc32)CC1` gave an IC50 of 12 µM. This IC50 lies about 4-fold higher than the previous one.

Molecule `CN(C)CCCCC(=O)N1c2ccccc2C(=O)Nc2cccnc21` came in with an IC50 of 0.5 µM.

For `CN1CCCC(CC(=O)N2c3ccccc3C(=O)Nc3cccnc32)CC1` (stereo not drawn), the IC50 amounted to 0.15 µM.

Turning to `CN1CCC(CC(=O)N2c3ccccc3C(=O)Nc3cccnc32)C1` (stereo not drawn), the IC50 came to 0.05 µM.

Regarding `CN1CCCC(CC(=O)N2c3ccccc3C(=O)Nc3cccnc32)C1` (stereo not drawn), the IC50 was 0.12 µM. Against the preceding molecule, the IC50 is about 2.4-fold higher.

System in another data set: not listed separately
Description: Partition coefficient (log P) at pH 7.4. The note with it: octanol/water. Format: physicochemical.
Broadly, the logD is the decadic logarithm of the distribution of all forms, ionised or not, between an organic phase and buffer at a given pH. A low value points to lower lipophilicity. For `CN1CCN(CC(=O)N2c3ccccc3NC(=O)c3cscc32)CC1`, the logD was -0.15.

With `CN1CCN(CC(=O)N2c3ccccc3NC(=O)c3ccccc32)CC1`, the logD stood at 0.11.

The molecule `CN1CCN(CC(=O)N2c3ccccc3NC(=O)c3cccnc32)CC1` yielded a logD of -0.42.

`CN1CCN(CC(=O)N2c3ccccc3C(=O)Nc3cccnc32)CC1` [PIRENZEPINE]: the logD was -0.64.
